The results in this text go back to patent US11795147B2, “Modulators of complex I” (Boehringer Ingelheim International GmbH, priority 2019, dated 2023).

The assay deals with Complex I. Nature of the assay: Assay A: Determination of Complex I mediated ROS-inhibition (CI). The format is biochemical. The following applies: read-out: CI IC50; ROS generation by Complex I purified from bovine heart, Amplex Red/horse radish peroxidase readout, 8 point concentration-response.
Usually IC50 stands for the midpoint of a concentration-inhibition curve. For the molecule `CC1CCC(C)N1c1ccc2c(c1)/C(=C1\COCCN1)C(=O)N2C` (centres unmarked) [Compound 84], the IC50 came to 0.333 µM.
With `CC1CCN(c2ccc3c(c2)/C(=C2\COCCN2)C(=O)N3C2CCOCC2)CC1` [Compound 85] the figure was 0.069 µM; with `O=C1/C(=C2/COCCN2)c2cc(N3CCCCC3)ccc2N1C1CCOCC1` [Compound 86], 0.069 µM.
As for `CC(C)Nc1ccc2c(c1)/C(=C1\CN(C(C)C)CCN1)C(=O)N2C(C)C` [Compound 88], the half-maximal inhibitory concentration (IC50) worked out at 0.068 µM.
For the molecule `CC(C)Nc1ccc2c(c1)/C(=C1\COCCN1)C(=O)N2C(C)(C)C` [Compound 90], the 50% inhibitory concentration (IC50) turned out to be 0.428 µM.
Regarding `CC(C)N1CCC2(CC1)CN/C(=C1\C(=O)N(C(C)C)c3ccc(N4CCCC4)cc31)CO2` [Compound 91], the IC50 stood at 0.242 µM.
Then `CC1COC/C(=C2/C(=O)N(C3CCOCC3)c3ccc(N4C(C)CCC4C)cc32)N1` (centres unmarked) [Compound 93], with 0.024 µM.
Then `CC(C)N1C(=O)/C(=C2/COCCN2)c2cc(NC3CCCC3)ccc21` [Compound 94], with 0.558 µM; and `CC(C)C(C)Nc1ccc2c(c1)/C(=C1\COCCN1)C(=O)N2C(C)C` (centres unmarked) [Compound 95], with 0.151 µM.
Then `CC(C)N1CCC(Nc2ccc3c(c2)/C(=C2\COCCN2)C(=O)N3C(C)C)CC1` [Compound 96], with 0.063 µM; and `CC(Nc1ccc2c(c1)/C(=C1\COCCN1)C(=O)N2C(C)C)C1CC1` (centres unmarked) [Compound 97], with 0.344 µM; and `CC(C)N1C(=O)/C(=C2/COCCN2)c2cc(NC3COC3)ccc21` [Compound 98], with 0.187 µM.
On to `COCC(C)Nc1ccc2c(c1)/C(=C1\COCCN1)C(=O)N2C1CCOCC1` (centres unmarked) [Compound 99], for which the IC50 stood at 0.451 µM.
With `CC(Nc1ccc2c(c1)/C(=C1\COCCN1)C(=O)N2C1CCOCC1)c1cccnc1` (centres unmarked) [Compound 100] the figure was 0.034 µM; with `CC1CCCC1Nc1ccc2c(c1)/C(=C1\COCCN1)C(=O)N2C1CCOCC1` (centres unmarked) [Compound 102], 0.109 µM; with `O=C1/C(=C2/COCCN2)c2cc(NCC3CC3)ccc2N1C1CCOCC1` [Compound 103], 0.076 µM.
`CN(C)c1ccc2c(c1)C(=C1NCC3(CCCCC3)CN1)C(=O)N2C` [Compound 104]: the IC50 was 0.704 µM.
For the molecule `CN(C)c1ccc2c(c1)/C(=C1\CCCCCN1)C(=O)N2C` [Compound 105], the IC50 came to 0.064 µM.
With `CN(C)c1ccc2c(c1)/C(=C1/NCCN1c1ccccc1)C(=O)N2C` [Compound 106] the figure was 0.327 µM; with `CN1C(=O)/C(=C2/CCOCCN2)c2cc(N3CCCC3)ccc21` [Compound 107], 0.299 µM.
In the case of `CN(C)c1ccc2c(c1)/C(=C1\CCN(C(=O)OCc3ccccc3)CCN1)C(=O)N2C` [Compound 108], the half-maximal inhibitory concentration (IC50) is 0.118 µM.
Then `CC(C)N1CCN/C(=C2\C(=O)N(C)c3ccc(N4CCCC4)cc32)CC1` [Compound 110], with 0.264 µM.
As to `CC(=O)N1CCN/C(=C2\C(=O)N(C3CCOCC3)c3ccc(NC(C)C)cc32)C1` [Compound 111], the IC50 was 0.119 µM.
As for `O=C1C(=C2CCOCC2)c2cc(N3CCCC3)ccc2N1C1CCOCC1` [Compound 112], the IC50 stood at 0.352 µM.
On to `CC(C)N1C(=O)/C(=C2/CCCCN2)c2cc(N(C3CCC3)C3CCC3)ccc21` [Compound 113], for which the IC50 was 0.106 µM.
Take `CC(C)Nc1ccc2c(c1)/C(=C1\CN(C3COC3)CCN1)C(=O)N2C(C)C` [Compound 114]: the IC50 came out at 0.058 µM.
Then `CC(C)Nc1ccc2c(c1)/C(=C1\CCCN1C)C(=O)N2C(C)C` [Compound 115], with 0.08 µM.
On to `CC(C)N1C(=O)C(=C2CCOCC2)c2cc(NC3CCCC3)ccc21` [Compound 116], for which the IC50 is 0.539 µM.
On to `O=C1/C(=C2/COCCN2)c2cc(N3CCCC3)ccc2N1C1CCOCC1` [Compound 117], for which the IC50 stood at 0.738 µM.
With `COCC(C)N1C(=O)/C(=C2/COCCN2)c2cc(N3CCC(O)C3)ccc21` (centres unmarked) [Compound 119] the figure was 0.422 µM; with `O=C1/C(=C2/CCOCCN2)c2cc(NC3CCC3)ccc2N1C1CCOCC1` [Compound 120], 0.235 µM; with `O=C1/C(=C2/CCN(C3COC3)CCN2)c2cc(N3CCCC3)ccc2N1C1CCOCC1` [Compound 121], 0.075 µM.
With `CC1CCCC1Nc1ccc2c(c1)/C(=C1\COCCN1)C(=O)N2C(C)C` (centres unmarked) [Compound 124] the figure was 0.259 µM; with `CC1OCCC1Nc1ccc2c(c1)/C(=C1\COCCN1)C(=O)N2C(C)C` (centres unmarked) [Compound 125], 0.05 µM; with `CC(Nc1ccc2c(c1)/C(=C1\COCCN1)C(=O)N2C(C)C)c1cncnc1` (centres unmarked) [Compound 126], 0.085 µM.
For `CC(C)N1C(=O)/C(=C2/COCCN2)c2cc(NCC3(C)COC3)ccc21` [Compound 127], the IC50 is 0.082 µM.
In the case of `CC(C)N1C(=O)/C(=C2/CCOCCN2)c2cc(N3C(C)CCC3C)ccc21` (centres unmarked) [Compound 128], the IC50 was found to be 0.044 µM.
Then `CC(C)N1C(=O)/C(=C2/CCOCCN2)c2cc(N3CCCC3)ccc21` [Compound 129], with 0.702 µM.
As for `CC(C)N1C(=O)/C(=C2/COCCN2)c2cc(N3CCCC3)ccc21` [Compound 130], the IC50 turned out to be 0.877 µM.
Consider `O=C1/C(=C2/COCCN2)c2cc(NC3CCC3)ccc2N1C1CCOCC1` [Compound 132], for which the IC50 came out at 0.055 µM.
With `CC(C)Nc1ccc2c(c1)/C(=C1\CCCCN1)C(=O)N2C(C)C` [Compound 133] the figure was 0.049 µM; with `CC(C)Nc1ccc2c(c1)/C(=C1\CN(C3CCOCC3)CCN1)C(=O)N2C(C)C` [Compound 134], 0.062 µM.
Then `CC(C)Nc1ccc2c(c1)/C(=C1\COCCN1)C(=O)N2C1COC1` [Compound 135], with 0.082 µM; and `CCC(CC)Nc1ccc2c(c1)/C(=C1\COCCN1)C(=O)N2C1COC1` [Compound 136], with 0.213 µM.
Regarding `COCC(C)Nc1ccc2c(c1)/C(=C1\COCCN1)C(=O)N2C1COC1` (centres unmarked) [Compound 137], the IC50 was determined as 0.138 µM.
Regarding `CC(C)Nc1ccc2c(c1)/C(=C1\COC3(CCN(C(C)C)CC3)CN1)C(=O)N2C(C)C` [Compound 138], the IC50 stood at 0.206 µM.
Then `CC(C)N1CCC2(CC1)CN/C(=C1\C(=O)N(C(C)C)c3ccc(N4C(C)CCC4C)cc31)CO2` (centres unmarked) [Compound 139], with 0.308 µM; and `O=C1/C(=C2/CCOCCN2)c2cc(NC3CCOC3)ccc2N1C1CCOCC1` (centres unmarked) [Compound 140], with 0.084 µM; and `O=C1/C(=C2/COCCCN2)c2cc(NC3CCOC3)ccc2N1C1CCOCC1` (centres unmarked) [Compound 141], with 0.104 µM.
With `CC1CCC(C)N1c1ccc2c(c1)/C(=C1\COCCCN1)C(=O)N2C1CCOCC1` (centres unmarked) [Compound 142] the figure was 0.116 µM.
Then `CC(Nc1ccc2c(c1)/C(=C1\COCCN1)C(=O)N2C(C)C)c1ccncc1` (centres unmarked) [Compound 143], with 0.079 µM; and `CC(Nc1ccc2c(c1)/C(=C1\COCCN1)C(=O)N2C(C)C)c1nccs1` (centres unmarked) [Compound 144], with 0.049 µM; and `CC(C)N1C(=O)/C(=C2/COCCN2)c2cc(NCC(C)(C)C)ccc21` [Compound 145], with 0.183 µM.
In the case of `CC(Nc1ccc2c(c1)/C(=C1\COCCN1)C(=O)N2C1CCOCC1)c1cnccn1` (centres unmarked) [Compound 146], the IC50 amounted to 0.066 µM.
As to `CC(Nc1ccc2c(c1)/C(=C1\COCCN1)C(=O)N2C1CCOCC1)c1cncnc1` (centres unmarked) [Compound 147], the IC50 came to 0.069 µM.
Then `CC(Nc1ccc2c(c1)/C(=C1\COCCN1)C(=O)N2C1CCOCC1)C1CCC1` (centres unmarked) [Compound 148], with 0.039 µM; and `COC1COCCC1Nc1ccc2c(c1)/C(=C1\COCCN1)C(=O)N2C1CCOCC1` (centres unmarked) [Compound 149], with 0.161 µM.
Then `CN1CCC(Nc2ccc3c(c2)/C(=C2\COCCN2)C(=O)N3C2CCOCC2)CC1` [Compound 150], with 0.048 µM; and `O=C1/C(=C2/COCCN2)c2cc(NCC3CCOC3)ccc2N1C1CCOCC1` (centres unmarked) [Compound 151], with 0.232 µM; and `CN1C(=O)/C(=C2/CCN(C(=O)OCc3ccccc3)CCN2)c2cc(N3CCCC3)ccc21` [Compound 152], with 0.477 µM.
Then `CN1C(=O)/C(=C2/COCCN2)c2cc(NC3CCC3)ccc21` [Compound 154], with 0.193 µM; and `CN1C(=O)/C(=C2/CCN(C3CCOC3)CCN2)c2cc(N3CCCC3)ccc21` (centres unmarked) [Compound 155], with 0.264 µM.
For the molecule `CC1CCC(C)N1c1ccc2c(c1)/C(=C1\COCCN1)C(=O)N2C1CCOCC1` (centres unmarked) [Compound 156], the IC50 amounted to 0.077 µM.
For the molecule `CC(C)N1C(=O)C(=C2CCOCC2)c2cc(N)ccc21` [Compound 157], the IC50 is 0.691 µM.
With `CC(C)N1C(=O)/C(=C2/CCCCN2)c2cc(N3CCOCC3)ccc21` [Compound 158], the IC50 was determined as 0.243 µM.
With `CC(=O)N1CCN/C(=C2\C(=O)N(C(C)C)c3ccc(NC(C)C)cc32)C1` [Compound 159] the figure was 0.12 µM; with `CC(C)N1C(=O)C(=C2CCOCC2)c2cc(NC3CCOC3)ccc21` (centres unmarked) [Compound 160], 0.829 µM.
As for `CC(C)N1C(=O)/C(=C2/CCCN2C)c2cc(NC3CCC3)ccc21` [Compound 161], the IC50 is 0.957 µM.
With `CC1CCC(C)N1c1ccc2c(c1)/C(=C1\COCCN1)C(=O)N2C1CCOC1` (centres unmarked) [Compound 162] the figure was 0.464 µM.
Turning to `CC(C)Nc1ccc2c(c1)/C(=C1\COCCN1)C(=O)N2C1CCOC1` (centres unmarked) [Compound 163], the IC50 stood at 0.172 µM.
Then `CC(C)Nc1ccc2c(c1)/C(=C1\CCN(C(C)C)CCN1)C(=O)N2C1CCOCC1` [Compound 164], with 0.172 µM; and `CC(C)Nc1ccc2c(c1)/C(=C1\CC3(CN1)COC3)C(=O)N2C1CCOCC1` [Compound 165], with 0.181 µM; and `CC(C)N1C(=O)/C(=C2/COCCN2)c2cc(N3CCOCC3)ccc21` [Compound 166], with 0.075 µM.
In the case of `CC(C)Nc1ccc2c(c1)/C(=C1\COCCCN1)C(=O)N2C1CCOCC1` [Compound 167], the IC50 is 0.065 µM.
In the case of `O=C1/C(=C2/COCCN2)c2cc(NC3CCOC3)ccc2N1C1CCOC1` (centres unmarked) [Compound 168], the IC50 is 0.041 µM.
With `O=C(CCO)Nc1ccc2c(c1)/C(=C1\COCCN1)C(=O)N2C1CCOC1` (centres unmarked) [Compound 169], the IC50 came out at 0.944 µM.
Then `CC(=O)N1CC[C@H](N2C(=O)/C(=C3/COCCN3)c3cc(NC(C)C)ccc32)C1` [Compound 170], with 0.023 µM.
